From patent publication US20100234278A1, “PROPHYLACTIC AND/OR THERAPEUTIC AGENTS FOR PERIPHERAL NEUROPATHY” (priority 2006, published 2010)
Entries after “also recorded” stand apart in the source; their conditions may differ.

Legend:
sciatic nerve axons = test: Histopathological evaluation of sciatic nerves (toluidine blue staining); assay type: in vivo, ICR mice
Protocol: ICR mice (male) were purchased at 5 weeks of age and handled for 1 week before use in the experiment. As an anticancer agent, taxotere (Taxotere injection, Aventis Pharma, 1V 80 mg 2 mL) was used. […] The vehicle serving as a control (0 mg/kg) was prepared in the same manner using Tween-80 and physiological saline for iv administration. On the other hand, recombinant human EPO under the trade name Epogin (Chugai Pharmaceutical Co., Ltd., Japan) was adjusted using a solution (containing […] NaCl, 0.125% histidine-HCl and 0.005% Tween 80 in 10 mmol/L phosphate buffer (pH 6.0)) and administered at 720 U/head/week. The administration schedule was as follows: […], once a week for 3 weeks (3 times in total on days 0, 7 and 14), while the vehicle and EPO (720 U/head) were each given sc (into the dorsal neck region) 3 hours before taxotere treatment. Muscle tissue was peeled off to expose sciatic nerves. Under this state, a glutaraldehyde fixing solution (stored on ice immediately before use) was added to immerse all the sciatic nerves. After incubation for 10 minutes, the sciatic nerves were isolated and gently shaken for 1 hour in a shaker containing a glutaraldehyde fixing solution. The sciatic nerves were then embedded in a standard manner into a resin for electron microscopic examination. Toluidine blue-stained sections were prepared and evaluated for the degree of axonal degeneration at three levels: none (−), mild (+) and moderate (++).

[1] = tested on: taxotere-induced peripheral neuropathy model mice; test: Evaluation of neurological symptoms in taxotere-induced peripheral neuropathy model; assay type: in vivo, ICR mice
Protocol: ICR mice (male) were purchased at 5 weeks of age and handled for 1 week before use in the experiment.
As an anticancer agent, taxotere (Taxotere injection, Aventis Pharma, 1V 80 mg 2 mL) was used.
Using the attached solution and physiological saline, taxotere was adjusted to a volume of about 0.15 ml per 10 g mouse body weight (45 mg/kg iv, 90 mg/kg ip). The vehicle serving as a control (0 mg/kg) was prepared in the same manner using Tween-80 and physiological saline for iv administration.
On the other hand, recombinant human EPO under the trade name Epogin (Chugai Pharmaceutical Co., Ltd., Japan) was adjusted using a solution (containing […] NaCl, 0.125% histidine-HCl and 0.005% Tween 80 in 10 mmol/L phosphate buffer (pH 6.0)) and administered at 720 U/head/week. The administration schedule was as follows: taxotere was given at 0 or 45 mg/kg iv (via the tail vein) or at 90 mg/kg ip, once a week for 3 weeks (3 times in total on days 0, 7 and 14), while the vehicle and EPO (720 U/head) were each given sc (into the dorsal neck region) 3 hours before taxotere treatment.
Continuous treatment with taxotere will induce typical hind leg crossing in mice when hanged by their tails. If the symptoms reach an advanced stage, the same crossing response will also occur in the forelegs, thereby leading to dysbasia. Such a symptom was used as an indicator to evaluate the mice as follows: 0=no symptom; 0.5=abnormal movement without clear flexion; 1=flexion in one hind leg; 2=hind leg flexion or extension lasting for 2 seconds or longer; 3=dysbasia. Scoring was accomplished by blind evaluation of symptoms.

[2] = tested on: streptozotocin-induced diabetes model rats; conditions: streptozotocin-induced diabetes model rats (Bianchi et al., 2004); cited from earlier work
[3] = tested on: DRG (dorsal root ganglia); conditions: caused by addition of HIV envelop glycoprotein gp120 (Keswanai et al., 2004); cited from earlier work
[4] = tested on: cisplatin-treated cancer patients; conditions: EPO-treated group (Mangiameli et al., 2002); cited from earlier work
[5] = taxotere 90 mg/kg ip group (vehicle)

Degree of axonal degeneration: number of animals at mild (+) (sciatic nerve axons; [5]) | Degree of axonal degeneration: number of animals at moderate (++) (sciatic nerve axons; [5]) | Degree of axonal degeneration: number of animals at ± (sciatic nerve axons; [5]) | Time at which neurological symptoms developed after the treatment ([1]; taxotere 45 mg/kg iv once a week) | Time at which neurological symptoms developed after the treatment ([1]; taxotere 90 mg/kg ip once a week) | Compound | Degeneration levels of sciatic nerve axons, range of the group (sciatic nerve axons; EPO group upon taxotere 90 mg/kg ip treatment) | Effect on axonal degeneration of sciatic nerves, in words (sciatic nerve axons; EPO versus vehicle, taxotere 90 mg/kg ip) | Effect on neurological symptoms ([1]; neuropathy induced by taxotere 90 mg/kg ip, EPO 720 U/head sc, after 10 days (FIG. 2)) | Pain [2] | Reduced nerve conduction velocity [2] | Cell loss in DRG [3] | Neurological symptom scores [4] | Histological change of sciatic nerve axons, in words (sciatic nerve axons; groups receiving taxotere)
– | – | – | – | – | erythropoietin [EPO] | ± to mild (+) | tendency to alleviate neuropathy; also recorded: tended to suppress exacerbation | reduce significantly the neurological symptoms; also recorded: tended to suppress exacerbation of neurological symptoms | improves | improves reduced nerve conduction velocity | prevents cell loss in DRG | significantly improved | –
1 | 3 | 3 | around 8 days | around 8 days | CC(=O)O[C@@]12CO[C@@H]1C[C@H](O)[C@@]1(C)C(=O)[C@H](O)C3=C(C)[C@@H](OC(=O)[C@H](O)[C@@H](NC(=O)OC(C)(C)C)c4ccccc4)C[C@@](O)([C@@H](OC(=O)c4ccccc4)[C@H]21)C3(C)C [taxotere] | – | – | – | – | – | – | – | diameter reduction and deformation of axons, which were indicative of clear axonal degeneration
